Measurements taken from patent publication US20200345725A1, “Methods and Compositions for Treating Cancer” (Omeros Corporation, priority 2019, published 2020).

Target: T1, A2bR (Homo sapiens, UniProt P29275)
T1 construct: host or cells: HEK293
T1 sequence (P29275 1-332): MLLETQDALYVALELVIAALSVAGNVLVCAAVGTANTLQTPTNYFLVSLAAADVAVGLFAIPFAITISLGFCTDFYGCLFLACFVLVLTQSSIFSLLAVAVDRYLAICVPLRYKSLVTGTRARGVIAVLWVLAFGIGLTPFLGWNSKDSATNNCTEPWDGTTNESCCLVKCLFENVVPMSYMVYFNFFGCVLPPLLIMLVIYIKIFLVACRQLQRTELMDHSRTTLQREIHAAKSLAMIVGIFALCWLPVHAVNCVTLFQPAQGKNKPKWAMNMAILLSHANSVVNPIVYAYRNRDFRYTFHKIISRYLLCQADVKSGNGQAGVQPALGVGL
Experiment: Cre-luciferase reporter assay, HEK293 cells transfected with A2bR
Format: cell-based
Settings: overnight incubation; read-out: A2B (IC50 nM)

SMILES: Nc1nc(-n2cccn2)nc(-n2cccn2)c1Br [PBF-509]
- IC50: 680 nM
